Experimental data from patent publication US20150307841A1, “Composition for Promoting Differentiation and Proliferation of Neural Stem Cell and Neural Precursor Cell” (priority 2014, published 2015).

System: BrdU-positive neural precursor cells in the hippocampal region
Experiment: Immunohistochemical analysis of BrdU in hippocampus after soyasaponin I administration (Experimental Example 1)
Assay type: in vivo, rat
Method: After conducting the three behavioral tests, the rats were sacrificed for immunohistochemical analysis.
The brain slices of the test animals of the normal group (Sham), the IBO group and the Soya-I group were immunostained by the method of Heo H et al. (J Ethnopharmacol, 2009) with modifications. The rats were transcardially perfused with 4% PFA in PBS. Following fixation by immersing in 4% PFA in PBS for 3 hours, the brain tissues were cryoprotected in 30% sucrose in PBS, frozen with an optimal cutting temperature (OCT) compound and stored at −80° C.
The brain tissue blocks were cryosectioned through the coronal plane at a thickness of 35 μm. The brain tissue sections were stored at 4° C. in a storing solution (30% glycerol and 30% ethylene glycol in PBS). The stored brain slices were permeabilized in 0.5% Triton X-I00 for 20 minutes and incubated at 37° C. for 30 minutes in 2 N HCl. Then, they were blocked in 15% normal serum and 3% bovine serum albumin (BSA, bio-WORLD, Dublin, Ohio, USA) and 0.1% Triton X-100 for 2 hours under a free-floating condition.
The sections were incubated for 16 hours at 4° C. with primary antibodies against bromodeoxyuridine (BrdU) (Sigma). […]
In the immunohistochemical analysis, the number of the cells immnunostained against each antibody was counted from 5 or 6 hippocampal coronal sections. […]

C[C@@H]1O[C@@H](O[C@H]2[C@H](O[C@H]3[C@H](O[C@H]4CC[C@@]5(C)[C@@H](CC[C@]6(C)[C@@H]5CC=C5[C@@H]7CC(C)(C)C[C@@H](O)[C@]7(C)CC[C@]56C)[C@@]4(C)CO)O[C@H](C(=O)O)[C@@H](O)[C@@H]3O)O[C@H](CO)[C@H](O)[C@@H]2O)[C@H](O)[C@H](O)[C@H]1O [soyasaponin I]
Dose with greatest rise in number of BrdU-positive cells (10 mg/kg oral): largest increase
Number of BrdU-positive cells in the dentate gyrus of the hippocampus versus IBO (all doses (5, 10, 20 mg/kg) oral): increased significantly
